This note sets out measurements from patent US11022604B2, “Dock derived compound against laminin receptor (37 LR) and uses thereof” (Purdue Research Foundation, priority 2017, dated 2021).

Holding throughout (type): cell-based
Assay [1] deals with endothelial vessel formation in vitro (tube formation). Briefly: Angiogenesis tube formation assay (derivatives). The settings on record: 30 uM, 7 hour incubation. On the procedure:
FIGS. 28A-28F Representative images of tube formation. 7 hour incubation period with respective compounds: FIG. 28A, DMSO; FIG. 28B DBGII-3, 30 uM; FIG. 28C, EGCG, 30 uM; FIG. 28 D, DBGII-5, 30 uM, FIG. 28E, C3, 30 uM; FIG. 28 F, DBGII-9, 30 uM.
An angiogenesis tube formation assay was used to characterize the impact of compounds against endothelial vessel formation in vitro (i.e., tube formation).

Assay [2] has as its system PC3 prostate cancer cell lines. Briefly: CCK8 cell viability screen of derivatives. The settings on record: PC3, CCK8, day three. On the procedure:
FIGS. 22A-22B. Screen of all the derivatives made in Example 17 in CCK8 cell viability assay with PC3 prostate cancer cell lines at day 3 (FIG. 22A) and day 5 (FIG. 22B).
FIG. 23. All derivatives made in Example 17 are tested for cell inhibition percentage at day 3.
CCK8 cell viability assay with PC3 prostate cancer cell lines is conducted and cell viability on day 3, day 5 are examined, see FIGS. 22A-22B. Additionally, the cell inhibition percentage for compounds DBG1-191, 1-200, 02-09, 2-14, among others were further characterized in CCK8 assay against PC3.

For assay [3], the system named is PC3 prostate cancer cell line. The assay can be described thus: Cell Titer Glo cell viability assay. The source says:
In this series of cell viability experiments, we used the highly sensitive Cell Titer Glo reagents from Promega in PC3 prostate cancer cell line. We compared the parental compound C3 effect on reducing cell viability with the best derivative compound, DBG-02-09.

The subject of another assay is PC-3 cells. The assay can be described thus: PC-3 cell viability response to recombinant PEDF (CCK-8). Conditions: 48 hours. The method, then:
FIG. 13. PC-3 Cell Viability Response To Recombinant PEDF PC-3 cells were treated with 0.1 to 0.6 μM rPEDF for 48 hours and cell viability was measured using the CCK-8 assay (n=3, mean±SEM). A one-way ANOVA was used for statistical analysis (n.s. p=0.11) however the linear trend was significant (post test for linear trend, p<0.05).
Recombinant PEDF (BioProductsMD) was resuspended in PEDF Buffer (0.2 M NaCl, 20 mM sodium phosphate, and 1 mM DTT; ph 6.4). 1,500 cells per well were seeded in a clear 96-well plate in RPMI-1640 with 1% anti-anti and 10% FBS and allowed to grow overnight. A 0-hour recording was taken using CCK-8 and compared to a 48-hour reading after incubating PC-3 cells with recombinant PEDF (0.1 μM to […]) in RPMI-1640 with 1% anti-anti and 1% FBS. […] The adenovirus was administered intravenously (2×10^8 pfu/i.v.) 3 days following subcutaneous TC2-Ras cell implantation (10^4 or 10^5, without mAR (−mAR control) or with mAR (+mAR) in C57/BL6 male mice. Mice were injected intraperitoneally with 150 mg/kg Luciferin (10-20 min incubation) followed by a 5 min signal acquisition using an IVIS 100 imager (Caliper/PerkinElmer, Downers Grove, Ill.) and analyzed with LivingImage 3.1 software (Caliper/PerkinElmer), with signals reported as photons per second per […] per steridian (p/sec/cm^2/sr). Statistics. Statistical analysis was performed using GraphPad Prism 6. […]

For `O=C(c1ccccc1)N1CCN(C2c3ccccc3-c3ccccc32)CC1` [DBGII-05], the tube formation result in assay [1] is “Thinning of tubes formed”. Consider `CN(C)CCOc1ccccc1C(=O)N1CCN(C2c3ccccc3-c3ccccc32)CC1` [DBGII-09], for which the “cell inhibition percentage (rank among derivatives)” value in assay [2] is on record as “highest inhibition”. Also, the tube formation entry in assay [1] is recorded as “Thinning of tubes formed”. Besides, the IC50 (usually the concentration at which inhibition is half-maximal) in assay [3] (Homo sapiens, PC-3, PC3 cells) is 7.6 ± 0.52 µM. In addition, the “reduction of IC50 relative to parental compound C3” value in assay [3] (PC3 cells) turned out to be 2.2 fold. For the molecule `O=C(c1ccncc1Oc1ccccc1)N1CCN(C2c3ccccc3-c3ccccc32)CC1` [DBGII-03], in assay [1], the tube formation result is given as “Thinning of tubes formed”.

B1: recombinant PEDF: Recombinant pigment epithelium-derived factor (BioProductsMD), secreted glycoprotein (protein, UniProt P36955 20-418, looked up)
Pigment epithelium-derived …: QNPASPPEEGSPDPDSTGALVEEEDPFFKVPVNKLAAAVSNFGYDLYRVRSSTSPTTNVLLSPLSVATALSALSLGAEQRTESIIHRALYYDLISSPDIHGTYKELLDTVTAPQKNLKSASRIVFEKKLRIKSSFVAPLEKSYGTRPRVLTGNPRLDLQEINNWVQAQMKGKLARSTKEIPDEISILLLGVAHFKGQWVTKFDSRKTSLEDFYLDEERTVRVPMMSDPKAVLRYGLDSDLSCKIAQLPLTGSMSIIFFLPLKVTQNLTLIEESLTSEFIHDIDRELKTVQAVLTVPKLKLSYEGEVTKSLQEMKLQSLFDSPDFSKITGKPIKLTQVEHRAGFEWNEDGAGTTPSPGLQPAHLTFPLDYHLNQPFIFVLRDTDTGALLFIGKILDPRGP
Turning to B1, the “dose/response relationship for survival of PC-3 cells” value in the assay on PC-3 cells is on record as “unable to demonstrate a significant dose/response relationship”.
